From PubChem BioAssay AID504780 (National Center for Advancing Translational Sciences (NCATS), 2011)
Converted amounts (≈) assume the structure as drawn.

Test system: kinetic aqueous solubility, PBS pH 7.4, LC-UV/MS
Experiment: Identifying a Potential Treatment of Ataxia-Telangiectasia: Solubility Profiling
Conditions: active compounds read high
Description: Ataxia-telangiectasia (A-T) is a devastating and progressive disease for which, there is no cure. Although A-T is a multisystem disease, it is stereotyped characterized by its neurological symptoms such as truncal ataxia, due to cerebellar cortical degeneration of the Purkinje and granule cells. The underlying genetic cause of A-T is null mutations in the ATM (A-T mutated) gene. ATM is a nuclear serine/threonine kinase that functions as a master regulator of the cellular responses to double strand breaks (DSBs) in the DNA. Upon activation by DSBs, ATM phosphorylates a plethora of downstream targets, including KAP-1 on […]. KAP-1 phosphorylation occurs shortly in response to DSBs and mediates global chromatin relaxation, which facilitates DSB repair. The assay provider and the NCGC have developed assays to discover small molecules that compensate for the loss of ATM and have discovered a probe. The resulting probe is further characterized in several ADME assays. This bioassay provides profiling data on aqueous kinetic solubility (PBS @ pH 7.4) of one of the lead compounds developed in the ATM project. NIH Chemical Genomics Center [NCGC] NIH Molecular Libraries Probe Centers Network [MLPCN] MLPCN Grant: MH089030-01 Assay Submitter (PI): Wei Zheng and Yosef Shiloh
1. […] Concentration of the supernatant was determined by LC-UV or LC-MS/MS

How did the solubility turn out when `CC(=O)c1c(O)c(C)c(O)c(Cc2c(O)c3c(c(C(=O)/C=C/c4ccccc4)c2O)OC(C)(C)C=C3)c1O` was run?
The solubility was 250 µM (≈ 129 µg/mL).
